Laboratory results as given in paper PMC10564737, “Structure-based design of a phosphotyrosine-masked covalent ligand targeting the E3 ligase SOCS2” (Nature Communications, 2023).
“Also recorded” adds a separate entry of the source.

What was measured:
SOCS2 (SBC2) = target: T1, SOCS2 (SBC2) (Homo sapiens, UniProt O14508); assay: Intact ESI-MS of recombinant protein, covalent modification; format: biochemical
T1 construct: SOCS2 (amino acids 32–198); His6 (N, cleaved yes); made in house; host or cells: E. coli BL21(DE3)
T1 sequence (Q15369 17-112, one chain of several, further chain): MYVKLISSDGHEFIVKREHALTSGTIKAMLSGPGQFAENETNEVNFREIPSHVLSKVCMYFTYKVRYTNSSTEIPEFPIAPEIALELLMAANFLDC
T1 sequence (Q15370 1-104, one chain of several, further chain): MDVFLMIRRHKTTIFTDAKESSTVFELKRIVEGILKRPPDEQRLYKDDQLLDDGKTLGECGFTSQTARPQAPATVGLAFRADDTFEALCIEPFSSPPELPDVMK
Protocol: SBC2 protein (40 µM), SBC2 C111S, SBC4, SBC6, or CISH were incubated with an equimolar concentration of MN551 in 50 mM Tris, pH 8.0, 50 mM NaCl, 1 mM TCEP. At defined time points 20 µl samples were removed and the protein precipitated by the addition of 80 µl methanol. The precipitated protein was pelleted by centrifugation, washed with 500 µl methanol, and resuspended in an aqueous solution of 15% acetonitrile and 1% TFA. Samples were separated by HPLC on a C3 column using a 10–75% gradient of acetonitrile and analyzed using an Agilent 6130 quadrupole MS. Spectra were deconvoluted and integrated using Agilent LC/MSD ChemStation.

SOCS2 = target: T2, SOCS2 (Homo sapiens, UniProt O14508); assay: SOCS2 pulldown with biotinylated GHR_pY595 peptide from K562 cells pre-treated with compound; format: cell-based; details: K562 cells pre-treated with 10 µM for 6 h
T2 construct: endogenous SOCS2 from K562 lysates; endogenous in cells; host or cells: K562
T2 sequence (O14508 1-198): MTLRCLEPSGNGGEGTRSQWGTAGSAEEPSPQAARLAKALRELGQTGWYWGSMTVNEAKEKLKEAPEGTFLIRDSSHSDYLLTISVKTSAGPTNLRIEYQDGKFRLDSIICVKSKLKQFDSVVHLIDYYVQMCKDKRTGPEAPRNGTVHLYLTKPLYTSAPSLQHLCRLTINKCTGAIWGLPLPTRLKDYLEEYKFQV
Protocol: Pulldown of cellular SOCS2 was abrogated when K562 cells were pre-treated for 6 h with MN714 prior to cell lysis, further evidencing the inhibitor cell permeability and specific target engagement (Fig. 6c).
K562 cells were treated with either DMSO or 10 µM MN714 for 6 h before being lysed. For experiments with MN551, DMSO-treated lysate was used. DMSO-treated K562 lysate (1 mg/ml) was pre-cleared using control agarose beads (Pierce Control Agarose Resin, 26150) which were washed thrice using 50 mM Tris pH 7.4, 150 mM NaCl buffer. […] Unbound peptide was washed off through 3× cycles of buffer wash and spin. Beads were resuspended to a total volume of 100 µl per IP sample. 100 µl beads with immobilized peptides was added to the MN551 lysate tubes. Samples were incubated for 40 min at room temperature. Samples were spun and unbound supernatant was removed. Beads were washed 3× with 0.05% NP40, 50 mM Tris pH 7.4, 150 mM NaCl buffer before being resuspended in 35 µl 1× LDS. Samples were heated for 10 min at 95 °C after which the elute was transferred to a fresh tube. 20 µl of each sample was analyzed by Western Blot (4-12% Bis-Tris gel 180 V, 60 mins) before blotting for SOCS2 (ab109245, 1:1000 dilution) overnight at 4 °C. Uncropped blot images collected with ChemiDoc Touch imaging system (BioRad) operated by Image Lab (v2.4.0.03) and antibody validation provided in Source Data. […]

Row | Structure (SMILES) | covalent adduct observed by intact mass analysis (SOCS2 (SBC2); SBC2 (40 µM) treated with MN551 (40 µM)) | time to stoichiometric occupancy at Cys111 (SOCS2 (SBC2); recombinant SOCS2, equimolar compound) [h] | pulldown of cellular SOCS2 with GHR pY595 peptide (SOCS2)
1 | O=C(CCl)Nc1cccc(CNC(=O)[C@H](Cc2ccc(OP(=O)(O)O)cc2)NC(=O)Cc2ccc(F)cc2)c1 [MN551] | 1:1 covalent SOCS2:MN551 adduct and single covalent adduct | ≤ 2 | 
2 | CC(C)(C)C(=O)OCOP(=O)(OCOC(=O)C(C)(C)C)Oc1ccc(C[C@H](NC(=O)Cc2ccc(F)cc2)C(=O)NCc2cccc(NC(=O)CCl)c2)cc1 [MN714] |  |  | abrogated; also recorded: effective blockade of SOCS2-GHRpY interaction
